In the METLIN SMRT retention time set (Domingo-Almenara et al. 2019) one finds RP-LC retention time data, which are given here for 79 compounds.

The series can be described thus: gradient 5% acetonitrile 3 min, to 50% in 2 min, to 85% in 15 min, held 3 min, 100 µL/min. The following applies: column: Zorbax Extend-C18 2.1 x 50 mm; eluents: water / acetonitrile, 0.1% formic acid. The method in brief:
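Using water and acetonitrile that each contained 0.1% formic acid, mixtures of ~100 pure standards were separated at 100 μL/min on a Zorbax Extend-C18 column (2.1 × 50 mm, 1.8 μm). The HPLC fed a quadrupole time-of-flight mass spectrometer working in positive and negative ionization mode, with dead and dwell volumes of 40 μL and 900 μL. Data were acquired over 3 months. Retention time was read from computationally picked adduct peaks after manual inspection of each.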
Consider `Cc1oc(C(C)C)nc1C(=O)NCc1ccncc1`, for which the RP-LC retention time turned out to be 590 s.

For `COc1ccc(C)cc1NC(=O)Cc1csc2nc(-c3ccc(C)c(C)c3)cn12`, the RP-LC retention time was 930 s.

Regarding `CN1C(=O)c2cc(C(=O)NCCCc3ccccc3)nn2CC1(C)C(=O)NCc1ccccc1` (centres undefined), the RP-LC retention time is 814 s.

With `CCSc1nc2ccc(NS(=O)(=O)c3ccc4c(c3)OCCO4)cc2s1`, the RP-LC retention time stood at 987 s.

In turn, `O=C(CCn1nnc2cc(-c3noc(COc4ccc(Cl)cc4)n3)ccc21)N1CCCC1` gave an RP-LC retention time of 942 s.

Regarding `O=C(CN1CN(c2ccccc2)c2ncccc2S1(=O)=O)Nc1ccccc1Cl`, the RP-LC retention time turned out to be 934 s.

Turning to `Cc1cc(NC(=O)c2nc3ccccc3s2)sn1`, the RP-LC retention time amounted to 809 s.

As for `CCOC(=O)C1CCN(C(=O)c2csc(Nc3ccc(S(C)(=O)=O)cc3)n2)CC1`, the RP-LC retention time came out at 620 s.

On to `CCn1ccc(C(=O)NC)n1`, for which the RP-LC retention time was found to be 566 s.

Consider `c1ccc2c(N3CCOCC3)nnc(N3CCCC3)c2c1`, for which the RP-LC retention time was found to be 574 s.

With `CCc1ccc(C2=C(C)C(N3CCCN(C(=O)C4CCOC4)CC3)=NS2(=O)=O)cc1` (centres undefined), the RP-LC retention time is 749 s.

Take `Cc1cccc(-c2nnc(-c3nc(NCCCN4CCCC4=O)c4ccccc4n3)o2)c1`: the RP-LC retention time was 814 s.

The compound `O=S(=O)(c1cccc(Cl)c1)N1CCN(c2cnn3c(C4CC4)nnc3c2)CC1` returned an RP-LC retention time of 756 s.

As for `Cc1ccc(CNC(=O)c2cc(C)no2)cc1`, the RP-LC retention time was 793 s.

As to `O=c1ccc(N2CCCN(S(=O)(=O)c3cc(F)ccc3F)CC2)nn1-c1ccccc1`, the RP-LC retention time amounted to 853 s.

For `CCN(Cc1ccccc1)Cc1nc(-c2ccc(N3CCCC(C)C3)nc2)no1` (centres undefined), the RP-LC retention time worked out at 1020 s.

In turn, `Cc1ccc(CNC(=O)Cn2ccc3ccc(-c4nnc(C)o4)cc32)o1` registered an RP-LC retention time of 729 s.

In turn, `CC(C)n1cnc(S(=O)(=O)N2CCC(C(=O)Nc3ccc(Br)cc3F)CC2)c1` returned an RP-LC retention time of 834 s.

In turn, `O=C(CN1C(=O)CCC1=O)N1CC(c2nc(-c3cnccn3)no2)C1` came in with an RP-LC retention time of 574 s.

As for `O=C(c1ccco1)N1CCC(Cc2nnc(-c3ccccc3)o2)CC1`, the RP-LC retention time is 749 s.

For the compound `O=S(=O)(c1cccs1)N1CCc2nc(-c3ccc(F)cc3)ncc2C1`, the RP-LC retention time was determined as 1030 s.

In the case of `NC(=O)C1CCCN(C(=O)c2ccc(F)cc2F)C1` (centres undefined), the RP-LC retention time is 599 s.

`COc1ccc(OC)c(S(=O)(=O)N2CCC3(C2)C(=O)N(C)c2ccccc23)c1` (centres undefined): the RP-LC retention time is 853 s.

Consider `Cc1sc2ncnc(N3CCCCC3)c2c1C(=O)NCc1cc(F)ccc1F`, for which the RP-LC retention time is 1020 s.

With `Cn1cccc1C(CNS(=O)(=O)c1ccc(F)c(Cl)c1)N1CCOCC1` (centres undefined), the RP-LC retention time worked out at 575 s.

As to `N#CCCN1CCN(c2ccc(NC(=O)C3CCC3)c(C(=O)O)c2)CC1`, the RP-LC retention time turned out to be 586 s.

Take `COc1ccc2c(=O)c(Oc3ccc(C(=O)NC4CCS(=O)(=O)C4)cc3)coc2c1` (centres undefined): the RP-LC retention time was found to be 687 s.

Compound `CCc1noc(NC(C)=O)c1-c1ccc(C)c(S(=O)(=O)Nc2ccc3c(c2)OCCO3)c1` had an RP-LC retention time of 784 s.

Compound `COc1ccc2[nH]c(=O)c(CCC(=O)NCCOc3ccccc3OC)cc2c1` came in with an RP-LC retention time of 681 s.

On to `C[C@H](NC(=O)Cc1cc(F)cc(F)c1)C(=O)N[C@H]1N=C(c2ccccc2)c2ccccc2N(C)C1=O`, for which the RP-LC retention time stood at 853 s.

`CCCCCCNC(=O)C1CCCN(c2ncc(-c3ccccc3)cn2)C1` (centres undefined) displayed an RP-LC retention time of 1150 s.

In the case of `OC[C@@H]1CN(Cc2ccncc2F)C[C@H]1c1nc(C2CC2)no1`, the RP-LC retention time was determined as 562 s.

With `Cc1ccc(NC(=O)Nc2ccc3nc(N4CCN(C)CC4)cc(C)c3c2)cc1F`, the RP-LC retention time came to 614 s.

Regarding `O=C(Nc1cccc(-c2nnc3n2CCCC3)c1)c1ccc2c(c1)OCO2`, the RP-LC retention time stood at 679 s.

On to `O=C(Nc1ccccc1F)N1CC(c2nc(CCOCC3CC3)no2)C1`, for which the RP-LC retention time amounted to 786 s.

`COc1cccc(-c2nc(C3CCN(S(=O)(=O)c4cc(C)c(C)cc4C)CC3)no2)c1` showed an RP-LC retention time of 1280 s.

Take `CCN(CC)C(=O)CN1C(=O)C2(NC(C)C3C(=O)N(Cc4ccccc4)C(=O)C32)c2ccccc21` (centres undefined): the RP-LC retention time came to 857 s.

As to `CCn1cc(CCNC(C)=O)c2cccnc21`, the RP-LC retention time was determined as 561 s.

For `CCOC(=O)c1c(N2C(=O)CC(Sc3ccccc3C(=O)O)C2=O)sc(C)c1C` (centres undefined), the RP-LC retention time came out at 821 s.

`CCc1nc2cc(N3CCCC(C(=O)NCC4CCCO4)C3)cnc2nc1CC` (centres undefined) showed an RP-LC retention time of 694 s.

For `CCCNC(=O)C1CCN(c2ccc(SCC(=O)Nc3ccc(OC)c(Cl)c3)nn2)CC1`, the RP-LC retention time amounted to 654 s.

For the compound `CCN1CCN(C(=O)c2cn(-c3ccc(NC(=O)CC(C)C)cn3)cn2)CC1`, the RP-LC retention time came to 589 s.

Compound `COc1ccc(-n2cc(C(=O)OCC(=O)OC(C)(C)C)c3ccccc3c2=O)cc1` showed an RP-LC retention time of 1140 s.

In the case of `COc1ccc(-n2c(=O)c(C(=O)Nc3cccc(F)c3)c(O)c3cccnc32)cc1`, the RP-LC retention time was found to be 1250 s.

Compound `COc1ccc(CNC(=O)CSc2cc(N3CCN(c4ccccc4OC)CC3)ncn2)cc1` came in with an RP-LC retention time of 1090 s.

For the compound `Cn1ccc(C(=O)Nc2ccc(Cl)cc2C(=O)c2ccccc2)n1`, the RP-LC retention time amounted to 1010 s.

In the case of `CCC(C)NC(=O)N1CCc2c(c(-c3nc(C)no3)nn2C)C1` (centres undefined), the RP-LC retention time stood at 673 s.

Compound `O=C(O)c1cn(Cc2ccccc2F)c(=O)c2ccccc12` yielded an RP-LC retention time of 801 s.

Turning to `Cc1noc(C2CN(C(=O)c3cc4ccccc4[nH]3)C2)n1`, the RP-LC retention time stood at 675 s.

Regarding `O=C(Nc1ccc(N2CCCN(C(=O)C3CC3)CC2)cc1)c1cc(-c2ccc(F)cc2)n[nH]1`, the RP-LC retention time was determined as 730 s.

`COCCN1C(=O)c2ccccc2C(C(=O)NCc2ccccc2F)C12CCCCC2` (centres undefined) yielded an RP-LC retention time of 877 s.

Turning to `CCOc1ccc(CNC(=O)C2CCCN(c3nccnc3Sc3ccccc3)C2)cc1OCC` (centres undefined), the RP-LC retention time is 1030 s.

As to `COc1cccc(NC(=O)N2CCc3nc[nH]c3C2)c1`, the RP-LC retention time came out at 554 s.

In turn, `COc1ccc(-c2noc(C3CCCN3C(=O)c3ccc(C#N)cc3)n2)cc1OC` (centres undefined) gave an RP-LC retention time of 783 s.

As for `CC(C)c1ccc(OCC(=O)Oc2ccc3c(c2)ncn3C)cc1`, the RP-LC retention time amounted to 662 s.

`CSc1ccc(-c2nc3cccc(C)n3c2Nc2ccc(C)cc2)cc1` yielded an RP-LC retention time of 824 s.

Take `COc1cccc(CN2CCc3nn(CC4CC4)c(=O)n3CC2)n1`: the RP-LC retention time came to 595 s.

Compound `CN1CCCc2cc(C(CNC(=O)C(=O)NCc3ccc(F)cc3)N3CCOCC3)ccc21` (centres undefined) had an RP-LC retention time of 569 s.

`O=c1n(Cc2ccccc2)nc2ccc(S(=O)(=O)N3CCc4ccccc4C3)cn12` registered an RP-LC retention time of 644 s.

Regarding `O=C(O)C1CCCCC1C(=O)NCCc1csc(-c2cccnc2)n1` (centres undefined), the RP-LC retention time was 593 s.

With `O=C(Nc1cccc(F)c1)c1cc(C2CC2)on1`, the RP-LC retention time is 956 s.

Consider `COc1ccc(NC(=O)C2CC(=O)N(c3n[nH]c4cccc(F)c34)C2)c(OC)c1` (centres undefined), for which the RP-LC retention time came to 713 s.

On to `Cc1ccccc1NC(=O)C1CCCN(S(=O)(=O)c2cc(-c3noc(C4CCC4)n3)cs2)C1` (centres undefined), for which the RP-LC retention time was determined as 1130 s.

On to `COC[C@@H]1CN(C(=O)c2cc(C)oc2C)C[C@H]1c1nc(C2CC2)no1`, for which the RP-LC retention time amounted to 815 s.

Turning to `Cc1cc(OCC(=O)Nc2ccc(Cl)cc2F)nc(N2CCN(c3ccccc3)CC2)n1`, the RP-LC retention time is 945 s.

`CC(C)Cc1nnc(C(=O)Nc2cccc(C(=O)NCCc3c[nH]c4ccccc34)c2)s1` returned an RP-LC retention time of 955 s.

Turning to `CCc1nc2cc(-c3noc(Cc4ccc(NC(C)=O)cc4)n3)ccc2o1`, the RP-LC retention time came to 916 s.

In turn, `CCOc1ccc(-c2[nH]ncc2CNS(=O)(=O)Cc2c(F)cccc2Cl)cc1` displayed an RP-LC retention time of 882 s.

`Cc1cc(N2CCN(S(=O)(=O)c3ccc(F)cc3F)CC2)nc(NC2CCCCC2)n1` registered an RP-LC retention time of 805 s.

As to `CN(CC1COCCO1)c1ccc(C(=O)O)cc1NC(=O)c1ccc(Cl)cc1` (centres undefined), the RP-LC retention time turned out to be 812 s.

In turn, `CC(C)c1cc(N2CCN(C(=O)c3ccccc3)CC2)nc2nncn12` came in with an RP-LC retention time of 594 s.

`CCc1cccc(NC(=O)N2CCC(n3cnnc3C3CC3)C2)c1` (centres undefined) showed an RP-LC retention time of 667 s.

In the case of `Cc1oc(-c2ccccc2)nc1Cc1noc(Cc2ccc(F)cc2)n1`, the RP-LC retention time was determined as 1090 s.

`NC(=O)C1CCN(c2ccc3cccc(OCc4ccccc4Cl)c3n2)CC1` returned an RP-LC retention time of 593 s.

The compound `Cc1nc(-c2cn(C(C)C)c3ncccc23)sc1C(=O)Nc1ccccc1F` came in with an RP-LC retention time of 1090 s.

Consider `COc1cccc(N2N=NC3C(=O)N(c4ccc(OC)c(OC)c4)C(=O)C32)c1` (centres undefined), for which the RP-LC retention time came out at 852 s.

The compound `CN(Cc1nc2cc(C(=O)N3CCCC3)ccc2n1C)C(=O)Nc1ccccc1Br` showed an RP-LC retention time of 644 s.

`COCCCNC(=O)C1CCN(c2ncccc2S(=O)(=O)N2CCOCC2)CC1` showed an RP-LC retention time of 613 s.

In the case of `COc1ccc2[nH]cc(CCn3ccc4c(cnc5nc(-c6ccc(Cl)cc6)nn54)c3=O)c2c1`, the RP-LC retention time was found to be 990 s.
